From ChEMBL document CHEMBL5126522, “In vitro and in vivo evaluation of 211At-labeled fibroblast activation protein inhibitor for glioma treatment” (Bioorg Med Chem, 2022)
The source made the active and inactive calls. No cut-off for these calls is given here.

How the values were obtained:
[1] = Anti-tumor activity against human U-87 MG cells xenografted in BALB/c nude mouse assessed as reduction in tumor volume at 0.18 MBq, it measured on day 15 by electronic caliper analysis; format: functional, U-87MG ATCC
[2] = Inhibition of colony formation in human U-87 MG cells assessed as survival fraction at 4.6 kBq incubated in radioactive medium for 12 hrs followed by incubation in non-radioactive medium for 14 days by crystal violet staining based analysis; format: functional, U-87MG ATCC; conditions: time 852 hrs
[3] = Toxicity in BALB/c nude mouse xenografted with human U-87 MG cells assessed as change in body weight at 0.18 to 0.55 MBq, it; conditions: other, dose 0.18-0.55 MBq
[4] = Anti-tumor activity against human U-87 MG cells xenografted in BALB/c nude mouse assessed as reduction in tumor volume at 0.55 MBq, it measured on day 15 by electronic caliper analysis; format: functional, U-87MG ATCC; conditions: time 15 day
[5] = Drug uptake in tumor of BALB/c nude mouse xenografted with human U-87 MG cells at 0.3 MBq, iv measured after 0.5 hrs by gamma-counting analysis; format: ADME, organism-based, Neoplasm; conditions: in vivo
[6] = Ratio of drug level in tumor to blood in BALB/c nude mouse xenografted with human U-87 MG cells at 0.3 MBq, it measured after 2 hrs by gamma-counting analysis; format: ADME, tissue-based; conditions: other
[7] = Anti-tumor activity against human U-87 MG cells xenografted in BALB/c nude mouse assessed as median survival time at 0.18 MBq, it (reference value: 16.5 days); format: functional, U-87MG ATCC
[8] = Inhibition of colony formation in human U-87 MG cells assessed as survival fraction at 9.2 kBq incubated in radioactive medium for 12 hrs followed by incubation in non-radioactive medium for 14 days by crystal violet staining based analysis; format: functional, U-87MG ATCC; conditions: time 852 hrs
[9] = Toxicity in BALB/c nude mouse xenografted with human U-87 MG cells assessed as liver morphological changes at 0.55 MBq, it measured after 2 to 12 days by Hematoxylin-Eosin staining based analysis; format: tissue-based; conditions: other, time 2-12 day
[10] = Toxicity in BALB/c nude mouse xenografted with human U-87 MG cells assessed as stomach morphological changes at 0.55 MBq, it measured after 2 to 12 days by Hematoxylin-Eosin staining based analysis; format: tissue-based; conditions: other, time 2-12 day
[11] = Drug uptake in tumor of BALB/c nude mouse xenografted with human U-87 MG cells at 0.3 MBq, iv measured after 6 hrs by gamma-counting analysis; format: ADME, organism-based, Neoplasm; conditions: in vivo
[12] = Drug uptake in FAP-positive human U-87 MG cells assessed as binding rate measured after 60 mins; format: ADME, cell-based; conditions: u-87mg atcc, 1 h
[13] = Stability of the compound in serum (unknown origin) measured after 24 hrs by iTLC analysis; format: ADME, cell-free; conditions: read-out: Stability
[14] = Drug uptake in FAP-positive human U-87 MG cells assessed as binding rate pretreated with excess standard products measured after 60 mins; format: ADME, cell-based; conditions: u-87mg atcc, 1 h
[15] = Drug uptake in tumor of BALB/c nude mouse xenografted with human U-87 MG cells at 0.3 MBq, it measured after 0.5 hrs by gamma-counting analysis; format: ADME, tissue-based, Neoplasm; conditions: other
[16] = Stability of the compound in saline measured after 24 hrs by iTLC analysis; format: physicochemical; conditions: read-out: Stability
[17] = Drug uptake in kidney of BALB/c nude mouse xenografted with human U-87 MG cells at 0.3 MBq, it measured after 0.5 hrs by gamma-counting analysis; format: ADME, tissue-based; conditions: other
[18] = Antitumor activity against human U-87 MG cells xenografted in BALB/c nude mouse assessed as Ki67 expression in tumor at 0.55 MBq, it measured after 2 days by immunohistochemical analysis (reference value: 49.8 +/-7.67%); format: functional, U-87MG ATCC; conditions: time 2 day
[19] = Cytotoxicity against human U-87 MG cells assessed as cell viability at 12 kBq incubated in radioactive medium for 12 hrs followed by incubation in non-radioactive medium for 24 hrs by CCK8 assay; format: functional, U-87MG ATCC; conditions: time 36 hrs
[20] = Inhibition of colony formation in human U-87 MG cells assessed as survival fraction at 18.5 kBq incubated in radioactive medium for 12 hrs followed by incubation in non-radioactive medium for 14 days by crystal violet staining based analysis; format: functional, U-87MG ATCC
[21] = Induction of cell cycle arrest in human U-87 MG cells assessed as proportion of cells at G0/G1 phase at 23 kBq incubated in radioactive medium for 12 hrs followed by incubation in non-radioactive medium for 24 hrs by PI staining based flow cytometry (reference value: 69.9 +/-3.76%); format: functional, U-87MG ATCC; conditions: time 36 hrs
[22] = Induction of cell cycle arrest in human U-87 MG cells assessed as proportion of cells at G2/M phase at 23 kBq incubated in radioactive medium for 12 hrs followed by incubation in non-radioactive medium for 24 hrs by PI staining based flow cytometry (reference value: 15.7 +/-3.61%); format: functional, U-87MG ATCC; conditions: time 36 hrs
[23] = Drug uptake in stomach of BALB/c nude mouse xenografted with human U-87 MG cells at 0.3 MBq, iv by gamma-counting analysis; format: ADME, organism-based; conditions: in vivo
[24] = Anti-tumor activity against human U-87 MG cells xenografted in BALB/c nude mouse assessed as median survival time at 0.55 MBq, it (reference value: 16.5 days); format: functional, U-87MG ATCC
[25] = Drug uptake in liver of BALB/c nude mouse xenografted with human U-87 MG cells at 0.3 MBq, iv measured after 0.5 hrs by gamma-counting analysis; format: ADME, organism-based; conditions: in vivo
[26] = Drug uptake in FAP-positive human U-87 MG cells assessed as binding rate measured after 10 mins; format: ADME, cell-based; conditions: u-87mg atcc
[27] = Ratio of drug level in tumor to muscle in BALB/c nude mouse xenografted with human U-87 MG cells at 0.3 MBq, it measured after 2 hrs by gamma-counting analysis; format: ADME, tissue-based; conditions: other
[28] = Drug uptake in FAP-negative human MCF7 cells assessed as binding rate measured after 10 to 240 mins; format: ADME, cell-based; conditions: time 10-240 min
[29] = Toxicity in BALB/c nude mouse xenografted with human U-87 MG cells assessed as thyroid morphological changes at 0.55 MBq, it measured after 2 to 12 days by Hematoxylin-Eosin staining based analysis; conditions: other, time 2-12 day
[30] = Drug uptake in FAP-positive human U-87 MG cells assessed as binding rate measured for 4 hrs; format: ADME, cell-based; conditions: u-87mg atcc
[31] = Drug uptake in stomach of BALB/c nude mouse xenografted with human U-87 MG cells at 0.3 MBq, it by gamma-counting analysis; format: ADME; conditions: other
[32] = Drug uptake in liver of BALB/c nude mouse xenografted with human U-87 MG cells at 0.3 MBq, it measured after 0.5 hrs by gamma-counting analysis; format: ADME, tissue-based; conditions: other
[33] = Anti-tumor activity against human U-87 MG cells xenografted in BALB/c nude mouse assessed as reduction in tumor volume at 0.37 MBq, it measured on day 15 by electronic caliper analysis; format: functional, U-87MG ATCC
[34] = Drug uptake in tumor of BALB/c nude mouse xenografted with human U-87 MG cells at 0.3 MBq, iv measured after 2 hrs by gamma-counting analysis; format: ADME, organism-based, Neoplasm; conditions: in vivo
[35] = Ratio of drug level in tumor to liver in BALB/c nude mouse xenografted with human U-87 MG cells at 0.3 MBq, it measured after 2 hrs by gamma-counting analysis; format: ADME, tissue-based; conditions: other
[36] = Drug uptake in kidney of BALB/c nude mouse xenografted with human U-87 MG cells at 0.3 MBq, iv measured after 0.5 hrs by gamma-counting analysis; format: ADME, organism-based; conditions: in vivo
[37] = Toxicity in BALB/c nude mouse xenografted with human U-87 MG cells assessed as kidney morphological changes at 0.55 MBq, it measured after 2 to 12 days by Hematoxylin-Eosin staining based analysis; format: tissue-based; conditions: other, time 2-12 day
[38] = Ratio of drug level in tumor to kidney in BALB/c nude mouse xenografted with human U-87 MG cells at 0.3 MBq, it measured after 2 hrs by gamma-counting analysis; format: ADME, tissue-based; conditions: other
[39] = Antitumor activity against human U-87 MG cells xenografted in BALB/c nude mouse assessed as proportion of TUNEL-positive cells in tumor at 0.55 MBq, it measured after 2 days by immunohistochemical analysis (reference value: 3.54 +/-2.71%); format: functional, U-87MG ATCC; conditions: time 2 day
[40] = Anti-tumor activity against human U-87 MG cells xenografted in BALB/c nude mouse assessed as median survival time at 0.37 MBq, it (reference value: 16.5 days); format: functional, U-87MG ATCC
[41] = Renal toxicity BALB/c nude mouse xenografted with human U-87 MG cells assessed as change in BUN level at 0.55 MBq, it measured after 2 to 12 days; conditions: other, time 2-12 day
[42] = Cytotoxicity against human U-87 MG cells assessed as cell viability at 92 kBq incubated in radioactive medium for 12 hrs followed by incubation in non-radioactive medium for 24 hrs by CCK8 assay; format: functional, U-87MG ATCC; conditions: time 36 hrs
[43] = Antitumor activity against human U-87 MG cells xenografted in BALB/c nude mouse assessed as proportion of TUNEL-positive cells in tumor at 0.55 MBq, it measured after 12 days by immunohistochemical analysis (reference value: 3.31 +/-1.13%); format: functional, U-87MG ATCC; conditions: time 12 day
[44] = Drug uptake in tumor of BALB/c nude mouse xenografted with human U-87 MG cells at 0.3 MBq, it measured after 6 hrs by gamma-counting analysis; format: ADME, Neoplasm; conditions: other
[45] = Drug uptake in thyroid of BALB/c nude mouse xenografted with human U-87 MG cells at 0.3 MBq, iv by gamma-counting analysis; format: ADME, organism-based, Thyroid gland; conditions: in vivo
[46] = Drug uptake in thyroid of BALB/c nude mouse xenografted with human U-87 MG cells at 0.3 MBq, it by gamma-counting analysis; format: ADME, tissue-based, Thyroid gland; conditions: other
[47] = Hepatotoxicity BALB/c nude mouse xenografted with human U-87 MG cells assessed as change in serum ALT level at 0.55 MBq, it measured after 2 to 12 days; format: toxicity; conditions: other, time 2-12 day
[48] = Drug uptake in tumor of BALB/c nude mouse xenografted with human U-87 MG cells at 0.3 MBq, it measured after 2 hrs by gamma-counting analysis; format: ADME, tissue-based, Neoplasm; conditions: other
U-87MG ATCC [49] = test: Anti-tumor activity against human U-87 MG cells xenografted in BALB/c nude mouse assessed as reduction in tumor growth administered IT measured every 3 days by electronic caliper analysis; format: functional; conditions: dose 0.18-0.55 MBq, DDE = dose-dependent effect, tested as the 211At-labelled form
U-87MG ATCC [50] = test: Cytotoxicity against human U-87 MG cells assessed as reduction in cell viability incubated in radioactive medium for 12 hrs followed by incubation in non-radioactive medium for 24 hrs by CCK8 assay; format: functional, cell-based; conditions: dose 12-92 kBq, time 36.0 hrs, tested as the 211At-labelled form, DDE = dose-dependent effect
U-87MG ATCC [51] = test: Induction of cell cycle arrest in human U-87 MG cells assessed as increase in proportion of cells at S phase at 185 kBq incubated in radioactive medium for 12 hrs followed by incubation in non-radioactive medium for 24 hrs by PI staining based flow cytometry; format: functional; conditions: time 36.0 hrs, tested as the 211At-labelled form
U-87MG ATCC [52] = test: Inhibition of colony formation in human U-87 MG cells incubated in radioactive medium for 12 hrs followed by incubation in non-radioactive medium for 14 days by crystal violet staining based analysis; format: functional, cell-based; conditions: dose 4.6-18.5 kBq, time 852.0 hrs, tested as the 211At-labelled form, DDE = dose-dependent effect
U-87MG ATCC [53] = test: Antitumor activity against human U-87 MG cells xenografted in BALB/c nude mouse assessed as reduction in Ki67 expression in tumor at 0.55 MBq, it measured after 12 days by immunohistochemical analysis; format: functional, cell-based; conditions: time 12.0 day, tested as the 211At-labelled form
U-87MG ATCC [54] = test: Induction of apoptosis in human U-87 MG cells assessed as fragmented and condensed chromatin at 18.5 to 185 kBq measured after 24 hrs by DAPI staining based confocal microscopy; format: functional, cell-based; conditions: dose 18.5-185 kBq, tested as the 211At-labelled form

N#C[C@@H]1CC(F)(F)CN1C(=O)CNC(=O)c1ccnc2ccc(OCCCN3CCN(C(=O)c4ccc([211At])cc4)CC3)cc12
inhibition (INH) [1]: 55%
Activity [2]: 28.1%
Activity [3]: Non-Toxic
inhibition (INH) [4]: 76%
Drug uptake [5]: 4.04 % ID/g
Ratio [6]: 14.17
Survival [7]: 24 days
Activity [8]: 8.1%
Activity [9]: Non-Toxic
Activity [10]: Non-Toxic
Drug uptake [11]: 1.86 % ID/g
Drug uptake [12]: 24.9%
remaining at 24 h [13]: 85.6%
Drug uptake [14]: 9.3%
Drug uptake [15]: 132.5 % ID/g
remaining at 24 h [16]: 94.7%
Drug uptake [17]: Active
Activity [18]: 17.9%
Activity [19]: 61.9%
Activity [20]: 1.97%
Activity [21]: 21.9%
Activity [22]: 62.7%
Drug uptake [23]: Active
Survival [24]: 33 days
Drug uptake [25]: Active
Drug uptake [26]: 14.4%
Ratio [27]: 45.75
Drug uptake [28]: 4.7%
Activity [29]: Non-Toxic
Drug uptake [30]: Active
Drug uptake [31]: Active
Drug uptake [32]: Active
inhibition (INH) [33]: 70%
Drug uptake [34]: 3.12 % ID/g
Ratio [35]: 11.13
Drug uptake [36]: Active
Activity [37]: Non-Toxic
Ratio [38]: 6.39
Activity [39]: 28.7%
Survival [40]: 30 days
Activity [41]: Non-Toxic
Activity [42]: 42.1%
Activity [43]: 28.5%
Drug uptake [44]: 11.47 % ID/g
Drug uptake [45]: Active
Drug uptake [46]: Active
Activity [47]: Non-Toxic
Drug uptake [48]: 19.24 % ID/g

N#C[C@@H]1CC(F)(F)CN1C(=O)CNC(=O)c1ccnc2ccc(OCCCN3CCN(C(=O)c4ccc([At])cc4)CC3)cc12
Activity (U-87MG ATCC [49]): Dde
Activity (U-87MG ATCC [50]): Dde
Activity (U-87MG ATCC [51]): Active
inhibition (U-87MG ATCC [52]): Dde
Activity (U-87MG ATCC [53]): Active
Activity (U-87MG ATCC [54]): Active
